Measurements: ChEMBL document CHEMBL6177971, “Iterative Optimization Yields Stapled Peptides with Superior Pharmacokinetics and Potency for Renal Fibrosis Treatment” (J Med Chem, 2025)
Activity calls are given as the source filed them. The calls are words filed in the database; no cut-off is given here.

How the values were obtained:
[1] = tested on: Mus musculus; assay: Anti-fibrotic activity in C57BL/6J mouse model of unilateral ureteral obstruction assessed as decrease in MMP2 level at 0.25 mg/kg, ip administered every day for 7 days by Western blot analysis; type: functional, organism-based; conditions: time 7.0 day
[2] = tested on: Mus musculus; assay: Anti-fibrotic activity in C57BL/6J mouse model of unilateral ureteral obstruction assessed as decrease in fibronectin mRNA level at 0.25 mg/kg, ip administered every day for 7 days by qPCR analysis; type: functional, organism-based; conditions: time 7.0 day
[3] = tested on: Mus musculus; assay: Anti-fibrotic activity in C57BL/6J mouse model of unilateral ureteral obstruction assessed as decrease in fibronectin level at 0.25 mg/kg, ip administered every day for 7 days by Western blot analysis; type: functional, organism-based; conditions: time 7.0 day
[4] = Half life in male C57BL/6J mouse at 2.8 mg/kg, iv measured for 3 to 240 mins by UHPLC-HRMS analysis; type: ADME, organism-based; conditions: in vivo, time 3-240 min
[5] = tested on: HK-2; assay: Inhibition of myofibroblast activation in TGF-beta1-induced EMT in human HK-2 cells assessed as decrease in COL1A1 mRNA level at 1 to 5 uM incubated for 24 hrs by qPCR analysis; type: functional, cell-based; conditions: dose 1-5 µM
[6] = tested on: Mus musculus; assay: Anti-fibrotic activity in C57BL/6J mouse model of unilateral ureteral obstruction assessed as decrease in alpha-SMA level at 0.25 mg/kg, ip administered every day for 7 days by Western blot analysis; type: functional, organism-based; conditions: time 7.0 day
[7] = tested on: NIH3T3; assay: Inhibition of myofibroblast activation in TGF-beta1-induced EMT in mouse NIH3T3 cells assessed as decrease in collagen I mRNA level at 1 to 2 uM incubated for 48 hrs by qPCR analysis; type: functional, cell-based; conditions: dose 1-2 µM
[8] = tested on: HK-2; assay: Inhibition of myofibroblast activation in TGF-beta1-induced EMT in human HK-2 cells assessed as decrease in FN-1 mRNA level at 1 to 5 uM incubated for 24 hrs by qPCR analysis; type: functional, cell-based; conditions: dose 1-5 µM
[9] = Half life of compound; type: physicochemical
[10] = AUC (0 to infinity) in male C57BL/6J mouse at 2.8 mg/kg, iv measured for 3 to 240 mins by UHPLC-HRMS analysis; type: ADME, organism-based; conditions: in vivo, time 3-240 min
[11] = tested on: HK-2; assay: Inhibition of myofibroblast activation in TGF-beta1-induced EMT in human HK-2 cells assessed as decrease in fibronectin level at 1 to 10 uM incubated for 24 hrs by Western blot analysis; type: functional, cell-based; conditions: dose 1-10 µM
[12] = tested on: Mus musculus; assay: Anti-fibrotic activity in C57BL/6J mouse model of unilateral ureteral obstruction assessed as decrease in vimentin mRNA level at 0.25 mg/kg, ip administered every day for 7 days by qPCR analysis; type: functional, organism-based; conditions: time 7.0 day
[13] = tested on: Mus musculus; assay: Anti-fibrotic activity in C57BL/6J mouse model of unilateral ureteral obstruction assessed as decrease in kidney edema at 0.05 to 1.25 mg/kg, ip administered every day for 7 days; type: functional, organism-based; conditions: dose 0.05-1.25 mg/kg, time 7.0 day
[14] = tested on: NIH3T3; assay: Inhibition of myofibroblast activation in TGF-beta1-induced EMT in mouse NIH3T3 cells assessed as decrease in fibronectin mRNA level at 1 to 2 uM incubated for 48 hrs by qPCR analysis; type: functional, cell-based; conditions: dose 1-2 µM
[15] = tested on: HK-2; assay: Inhibition of myofibroblast activation in TGF-beta1-induced EMT in human HK-2 cells assessed as decrease in alpha-SMA level at 1 to 10 uM incubated for 24 hrs by Western blot analysis; type: functional, cell-based; conditions: dose 1-10 µM
[16] = tested on: Mus musculus; assay: Anti-fibrotic activity in C57BL/6J mouse model of unilateral ureteral obstruction assessed as decrease in collagen I level at 0.25 mg/kg, ip administered every day for 7 days by Western blot analysis; type: functional, organism-based; conditions: time 7.0 day
[17] = tested on: HK-2; assay: Inhibition of myofibroblast activation in TGF-beta1-induced EMT in human HK-2 cells assessed as decrease in MMP-2 level at 1 to 5 uM incubated for 24 hrs by Western blot analysis; type: functional, cell-based; conditions: dose 1-5 µM
[18] = tested on: Mus musculus; assay: Anti-fibrotic activity in C57BL/6J mouse model of unilateral ureteral obstruction assessed as decrease in vimentin level at 0.25 mg/kg, ip administered every day for 7 days by Western blot analysis; type: functional, organism-based; conditions: time 7.0 day
[19] = target: Albumin (Bos taurus, UniProt P02769); assay: Binding affinity to bovine serum albumin assessed as dissociation constant by ITC analysis; type: ADME
Sequence of Albumin (P02769 whole entry): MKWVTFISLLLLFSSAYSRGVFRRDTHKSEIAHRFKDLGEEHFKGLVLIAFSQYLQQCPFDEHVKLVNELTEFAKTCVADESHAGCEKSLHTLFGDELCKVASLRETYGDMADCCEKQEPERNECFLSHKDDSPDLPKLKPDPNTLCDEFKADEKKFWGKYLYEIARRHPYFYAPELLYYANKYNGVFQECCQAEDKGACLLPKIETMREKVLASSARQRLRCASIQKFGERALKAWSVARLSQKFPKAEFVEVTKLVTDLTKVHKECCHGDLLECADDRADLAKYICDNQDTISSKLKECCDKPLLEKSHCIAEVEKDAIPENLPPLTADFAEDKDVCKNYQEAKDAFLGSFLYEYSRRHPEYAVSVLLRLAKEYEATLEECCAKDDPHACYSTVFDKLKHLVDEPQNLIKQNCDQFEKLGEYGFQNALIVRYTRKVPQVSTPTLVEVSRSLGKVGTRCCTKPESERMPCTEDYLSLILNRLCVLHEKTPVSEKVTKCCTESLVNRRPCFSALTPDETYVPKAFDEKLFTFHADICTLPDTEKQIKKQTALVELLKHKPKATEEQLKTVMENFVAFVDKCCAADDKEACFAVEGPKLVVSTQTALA

[20] = tested on: Mus musculus; assay: Anti-fibrotic activity in C57BL/6J mouse model of unilateral ureteral obstruction assessed as decrease in yellowish appearance of kidney at 0.05 to 1.25 mg/kg, ip administered every day for 7 days; type: functional, organism-based; conditions: dose 0.05-1.25 mg/kg, time 7.0 day
[21] = tested on: Mus musculus; assay: Anti-fibrotic activity in C57BL/6J mouse model of unilateral ureteral obstruction assessed as decrease in kidney fibrosis at 0.05 to 1.25 mg/kg, ip administered every day for 7 days; type: functional, organism-based; conditions: dose 0.05-1.25 mg/kg, time 7.0 day
[22] = tested on: NIH3T3; assay: Inhibition of myofibroblast activation in TGF-beta1-induced EMT in mouse NIH3T3 cells assessed as decrease in fibronectin level incubated for 48 hrs by Western blot analysis; type: functional, cell-based; conditions: dose 1-10 µM
[23] = tested on: HK-2; assay: Inhibition of myofibroblast activation in TGF-beta1-induced EMT in human HK-2 cells assessed as decrease in vimentin level at 1 to 5 uM incubated for 24 hrs by Western blot analysis; type: functional, cell-based; conditions: dose 1-5 µM
[24] = MRT in male C57BL/6J mouse at 2.8 mg/kg, iv measured for 3 to 240 mins by UHPLC-HRMS analysis; type: ADME, organism-based; conditions: in vivo, time 3-240 min
[25] = tested on: Mus musculus; assay: Anti-fibrotic activity in C57BL/6J mouse model of unilateral ureteral obstruction assessed as decrease in renal fibronectin […] level administered intraperitoneally every day for 7 days by IHC analysis; type: functional, organism-based; conditions: dose 0.05-1.25 mg/kg, route ip, time 7.0 day

In the case of `CCCCCCCCCCCC(=O)N[C@H](CC(=O)O)C(=O)N[C@@H](Cc1c[nH]cn1)C(=O)N[C@@H](CC(N)=O)C(=O)N[C@H]1CSCCCCCCSC[C@@H](C(N)=O)NC(=O)[C@@H](C)NC(=O)[C@H](CCC(N)=O)NC(=O)[C@@H]2CCCN2C1=O`, the Activity [1] is reported as “Active”, the Activity [2] is reported as “Active” and the Activity [3] is reported as “Active”. For the same compound, the half-life [4] was 1.08 h, the inhibition [5] was “Active” and the Activity [6] was “Active”. The inhibition [7] was “Active”, the inhibition [8] was “Active” and the half-life [9] was 27 h. The AUC(0-inf) [10] was 1940 ng·h/mL, the inhibition [11] was “Active; No Additional Suppression Observed At Concentrations Above 5 Î¼M” and the Activity [12] was “Active”. For the same compound, the Activity [13] was “Active”, the inhibition [14] was “Active” and the inhibition [15] was “Active; No Additional Suppression Observed At Concentrations Above 5 Î¼M”. The Activity [16] was “Active”, the inhibition [17] was “Active” and the Activity [18] was “Active”. The Kd [19] was 10.6 µM, the Activity [20] was “Active” and the Activity [21] was “Active”. For the same compound, the inhibition [22] was “Active; No Further Enhancement In Antifibrotic Activity Was Observed At Concentrations Above 2 Î¼M”, the inhibition [23] was “Active” and the MRT [24] was 0.337 h. The Activity [25] was “Dose-dependent-effect”.
